In one experiment the target is T1, JAK2 tyrosine kinase (Homo sapiens, UniProt O60674).
T1 construct: purchased Carnabioscience Co
Briefly: Test 1: inhibitory activity to JAK2 tyrosine kinase (ELISA). In kind it is biochemical. The settings on record: 25 μM ATP in substrate solution, 30° C. for 1 hour, n=2. The procedure, abridged: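 This is an ELISA read at A450 (HRP anti-phosphotyrosine antibody, TMB) of biotin-peptide phosphorylation captured on streptavidin. Enzyme solution was 0.75 nM JAK2, and the substrate solution was 625 nM peptide with 25 μM ATP in Tris pH 7.5 buffer. The reaction ran 1 h at 30 °C with compounds in duplicate, and IC50 was fitted non-linearly.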
Background: In an ELISA, binding on a coated surface is turned into a signal by an enzyme label.

In another experiment the target is T2, JAK3 tyrosine kinase (Homo sapiens, UniProt P52333).
T2 construct: purchased Carnabioscience Co
T2 sequence (P52333 1-1124): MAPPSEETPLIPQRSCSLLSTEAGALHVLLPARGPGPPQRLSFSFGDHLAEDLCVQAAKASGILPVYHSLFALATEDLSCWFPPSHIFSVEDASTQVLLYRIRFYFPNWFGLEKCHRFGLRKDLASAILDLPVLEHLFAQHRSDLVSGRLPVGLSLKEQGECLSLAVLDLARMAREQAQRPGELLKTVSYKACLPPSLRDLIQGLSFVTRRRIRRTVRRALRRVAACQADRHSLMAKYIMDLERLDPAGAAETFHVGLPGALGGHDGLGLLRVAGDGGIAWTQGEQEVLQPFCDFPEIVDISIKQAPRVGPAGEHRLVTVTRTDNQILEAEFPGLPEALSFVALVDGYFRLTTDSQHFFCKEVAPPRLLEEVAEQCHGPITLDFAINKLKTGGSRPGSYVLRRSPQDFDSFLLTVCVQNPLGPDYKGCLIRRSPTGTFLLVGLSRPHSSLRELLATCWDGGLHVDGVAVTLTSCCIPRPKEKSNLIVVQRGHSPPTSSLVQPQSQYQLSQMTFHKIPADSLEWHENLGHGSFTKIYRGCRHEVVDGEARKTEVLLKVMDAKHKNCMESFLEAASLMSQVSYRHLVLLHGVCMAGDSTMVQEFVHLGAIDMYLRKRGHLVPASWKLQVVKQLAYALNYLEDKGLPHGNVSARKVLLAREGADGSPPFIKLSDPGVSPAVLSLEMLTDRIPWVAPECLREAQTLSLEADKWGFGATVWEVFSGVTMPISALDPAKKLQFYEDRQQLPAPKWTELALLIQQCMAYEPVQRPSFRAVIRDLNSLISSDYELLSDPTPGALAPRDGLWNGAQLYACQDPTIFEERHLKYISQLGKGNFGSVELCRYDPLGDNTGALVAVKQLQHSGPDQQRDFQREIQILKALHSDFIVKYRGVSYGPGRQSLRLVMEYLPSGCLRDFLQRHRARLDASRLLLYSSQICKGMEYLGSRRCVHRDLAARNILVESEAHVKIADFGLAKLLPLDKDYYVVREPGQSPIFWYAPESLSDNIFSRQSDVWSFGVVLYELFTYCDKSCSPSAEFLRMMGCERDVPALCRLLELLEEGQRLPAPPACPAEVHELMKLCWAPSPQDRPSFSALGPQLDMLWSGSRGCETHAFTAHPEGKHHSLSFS
Briefly: Test 1: inhibitory activity to JAK3 tyrosine kinase (ELISA). In kind it is biochemical. Particulars: 25 μM ATP in substrate solution, 30° C. for 1 hour, n=2. The procedure, abridged: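 ELISA of JAK3 kinase activity with absorbance read at 450 nm. Compounds were tested from DMSO dilution series at 100-fold the measurement concentrations (1000–0.01 μM), diluted up to 20 times in assay buffer, against a DMSO negative control. IC50 was estimated by non-linear regression of absorbance.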

Each structure is given as a SMILES string. Counter-ions that a name gives are not always drawn.

T1 sequence (O60674 whole entry): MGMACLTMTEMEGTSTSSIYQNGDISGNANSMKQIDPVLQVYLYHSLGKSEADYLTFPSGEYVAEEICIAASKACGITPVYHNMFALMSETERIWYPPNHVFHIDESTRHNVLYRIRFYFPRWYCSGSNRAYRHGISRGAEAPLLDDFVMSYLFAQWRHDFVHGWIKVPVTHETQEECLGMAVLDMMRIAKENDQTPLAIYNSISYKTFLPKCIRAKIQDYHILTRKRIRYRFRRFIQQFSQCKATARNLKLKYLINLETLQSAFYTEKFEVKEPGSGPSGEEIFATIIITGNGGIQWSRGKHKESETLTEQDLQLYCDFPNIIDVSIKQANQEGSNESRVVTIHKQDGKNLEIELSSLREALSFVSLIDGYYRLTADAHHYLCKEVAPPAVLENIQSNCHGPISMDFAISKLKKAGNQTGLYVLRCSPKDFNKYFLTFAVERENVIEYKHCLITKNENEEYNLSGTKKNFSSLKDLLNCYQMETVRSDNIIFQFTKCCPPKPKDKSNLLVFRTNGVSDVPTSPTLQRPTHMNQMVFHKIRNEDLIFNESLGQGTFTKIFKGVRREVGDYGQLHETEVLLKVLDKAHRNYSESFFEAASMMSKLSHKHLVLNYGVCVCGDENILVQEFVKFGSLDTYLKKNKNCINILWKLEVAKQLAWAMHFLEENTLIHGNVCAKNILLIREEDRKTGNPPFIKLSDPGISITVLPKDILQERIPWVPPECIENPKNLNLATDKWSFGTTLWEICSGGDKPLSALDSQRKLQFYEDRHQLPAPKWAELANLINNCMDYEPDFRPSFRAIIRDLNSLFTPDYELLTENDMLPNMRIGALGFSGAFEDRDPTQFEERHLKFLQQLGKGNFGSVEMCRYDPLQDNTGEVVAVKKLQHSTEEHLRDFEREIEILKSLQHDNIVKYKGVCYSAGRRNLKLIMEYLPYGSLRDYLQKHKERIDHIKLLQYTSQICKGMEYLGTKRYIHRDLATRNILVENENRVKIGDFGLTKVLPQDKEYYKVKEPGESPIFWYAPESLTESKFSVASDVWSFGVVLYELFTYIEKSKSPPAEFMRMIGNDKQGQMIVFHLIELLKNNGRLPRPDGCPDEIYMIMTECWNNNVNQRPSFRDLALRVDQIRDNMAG

Consider `C[C@H](Nc1nc(NCC(N)=O)cc(Nc2cnccn2)n1)c1ccc(F)cc1` [Example 79, (S)-2-{2-[1-(4-Fluorophenyl)ethylamino]-6-(pyrazin-2-ylamino)pyrimidin-4-ylamino}acetamide hydrochloride], for which the IC50 (usually the point on the concentration scale where inhibition reaches its midpoint) against JAK2 tyrosine kinase was 4.3 nM; against JAK3 tyrosine kinase it was 140 nM.

On to `C[C@H](Nc1nc(Nc2cnccn2)cc(-c2ccc(C(N)=O)cc2)n1)c1ccc(F)cc1` [Example 80, (S)-4-{2-[1-(4-Fluorophenyl)ethylamino]-6-(pyrazin-2-ylamino)pyrimidin-4-yl}benzamide hydrochloride], for which the IC50 was found to be 1.1 nM at JAK2 tyrosine kinase and 60 nM on JAK3 tyrosine kinase.

`C[C@H](Nc1nc(Nc2cnccn2)cc(-c2cccc(C#N)c2)n1)c1ccc(F)cc1` [Example 81, (S)-3-{2-[1-(4-Fluorophenyl)ethylamino]-6-(pyrazin-2-ylamino)pyrimidin-4-yl}benzonitrile]: the IC50 against JAK2 tyrosine kinase is 5.6 nM; on JAK3 tyrosine kinase it was 480 nM.

Turning to `C[C@H](Nc1nc(Nc2cnccn2)cc(-c2ccoc2)n1)c1ccc(F)cc1` [Example 82, (S)—N^2-[1-(4-Fluorophenyl)ethyl]-6-(furan-3-yl)-N^4-(pyrazin-2-yl)pyrimidine-2,4-diamine hydrochloride], the IC50 against JAK2 tyrosine kinase is 1.7 nM; against JAK3 tyrosine kinase, 99 nM.

As for `CCOC(=O)C1CCN(c2cc(Nc3cnccn3)nc(N[C@@H](C)c3ccc(F)cc3)n2)CC1` [Example 83, Ethyl (S)-1-{2-[1-(4-fluorophenyl)ethylamino]-6-(pyrazin-2-ylamino)pyrimidin-4-yl}piperidin-4-carboxylate], the IC50 was determined as 3.7 nM against JAK2 tyrosine kinase and 58 nM at JAK3 tyrosine kinase.

With `C[C@H](Nc1nc(Nc2cnccn2)cc(-c2cncc(C(N)=O)c2)n1)c1ccc(F)cc1` [Example 84, (S)-5-{2-[1-(4-Fluorophenyl)ethylamino]-6-(pyrazin-2-ylamino)pyrimidin-4-yl}nicotinamide], the IC50 on JAK2 tyrosine kinase amounted to 2 nM; on JAK3 tyrosine kinase it was 170 nM.

For `C[C@H](Nc1nc(Nc2cnccn2)cc(N2CCC(C(=O)O)CC2)n1)c1ccc(F)cc1` [Example 85, (S)-1-{2-[1-(4-Fluorophenyl)ethylamino]-6-(pyrazin-2-ylamino)pyrimidin-4-yl}piperidine-4-carboxylic acid], the IC50 at JAK2 tyrosine kinase worked out at 0.51 nM; on JAK3 tyrosine kinase, 20 nM.

Regarding `C[C@H](Nc1nc(Nc2cnccn2)cc(N[C@H](CO)c2ccccc2)n1)c1ccc(F)cc1` [Example 86, (S)-2-{2-[(S)-1-(4-Fluorophenyl)ethylamino]-6-(pyrazin-2-ylamino)pyrimidin-4-ylamino}-2-phenylethanol], the results for the IC50 on JAK2 tyrosine kinase and at JAK3 tyrosine kinase were 2.4 nM and 87 nM, respectively.

As for `C[C@H](Nc1nc(Nc2cnccn2)cc(N[C@H](CO)Cc2ccccc2)n1)c1ccc(F)cc1` [Example 87, (S)-2-{2-[(S)-1-(4-Fluorophenyl)ethylamino]-6-(pyrazin-2-ylamino)pyrimidin-4-ylamino}-3-phenylpropan-1-ol], the IC50 against JAK2 tyrosine kinase turned out to be 14 nM; at JAK3 tyrosine kinase, 450 nM.

For `CC(C)C[C@H](CO)Nc1cc(Nc2cnccn2)nc(N[C@@H](C)c2ccc(F)cc2)n1` [Example 88, (R)-2-{2-[(S)-1-(4-Fluorophenyl)ethylamino]-6-(pyrazin-2-ylamino)pyrimidin-4-ylamino}-4-methylpentan-1-ol], the IC50 at JAK2 tyrosine kinase came to 13 nM; against JAK3 tyrosine kinase, 200 nM.

As for `C[C@H](Nc1nc(Nc2cnccn2)cc(OCCN(C)C)n1)c1ccc(F)cc1` [Example 89, (S)-6-[2-(Dimethylamino)ethoxy]-N^2-[1-(4-fluorophenyl)ethyl]-N^4-(pyrazin-2-yl)pyrimidine-2,4-diamine dihydrochloride], the values for the IC50 on JAK2 tyrosine kinase and against JAK3 tyrosine kinase were 3.8 nM and 150 nM, respectively.

For `C[C@H](Nc1nc(Nc2cnccn2)cc(-n2cc(C(=O)O)cn2)n1)c1ccc(F)cc1` [Example 90, (S)-1-{2-[1-(4-Fluorophenyl)ethylamino]-6-(pyrazin-2-ylamino)pyrimidin-4-yl}-1H-pyrazole-4-carboxylic acid], the IC50 against JAK2 tyrosine kinase amounted to 6.1 nM; on JAK3 tyrosine kinase, 380 nM.

As to `C[C@H](Nc1nc(Nc2cnccn2)cc(-c2cccc(C(N)=O)c2)n1)c1ccc(F)cc1` [Example 91], the figures for the IC50 against JAK2 tyrosine kinase and against JAK3 tyrosine kinase were 1.4 nM and 97 nM, respectively.

Consider `C[C@H](Nc1nc(Nc2cnccn2)cc(-c2ccc3c(c2)OCO3)n1)c1ccc(F)cc1` [Example 92, (S)-6-(Benzo[d]1,3-dioxol-5-yl)-N^2-[1-(4-fluorophenyl)ethyl]-N^4-(pyrazin-2-yl)pyrimidine-2,4-diamine hydrochloride], for which the results for the IC50 against JAK2 tyrosine kinase and at JAK3 tyrosine kinase were 9.8 nM and 460 nM, respectively.

`C[C@H](Nc1nc(Nc2cnccn2)cc(-c2ccnc(F)c2)n1)c1ccc(F)cc1` [Example 93, (S)—N^2-[1-(4-Fluorophenyl)ethyl]-6-(2-fluoropyridin-4-yl)-N^4-(pyrazin-2-yl)pyrimidine-2,4-diamine]: the IC50 against JAK2 tyrosine kinase turned out to be 3 nM; on JAK3 tyrosine kinase, 220 nM.

Consider `C[C@H](Nc1nc(Nc2cnccn2)cc(OCC2CCCO2)n1)c1ccc(F)cc1` (stereo partly drawn) [Example 94, N^2-[(S)-1-(4-Fluorophenyl)ethyl]-N^4-(pyrazin-2-yl)-6-[(tetra hydrofuran-2-yl)methoxy]pyrimidine-2,4-diamine], for which the IC50 at JAK2 tyrosine kinase was determined as 1.7 nM; against JAK3 tyrosine kinase, 77 nM.

Turning to `C[C@H](Nc1nc(Nc2cnccn2)cc(OCCO)n1)c1ccc(F)cc1` [Example 95, (S)-2-{2-[1-(4-Fluorophenyl)ethylamino]-6-(pyrazin-2-ylamino)pyrimidin-4-yloxy}ethanol hydrochloride], the IC50 against JAK2 tyrosine kinase is 2.2 nM; against JAK3 tyrosine kinase, 110 nM.

In the case of `C[C@H](Nc1nc(NCCN2CCCC2)cc(Nc2cnccn2)n1)c1ccc(F)cc1` [Example 96, (S)—N^2-[1-(4-Fluorophenyl)ethyl]-N^4-(pyrazin-2-yl)-N^6-[2-(pyrrolidin-1-yl)ethyl]pyrimidine-2,4,6-triamine], the IC50 against JAK2 tyrosine kinase is 1.4 nM; against JAK3 tyrosine kinase it was 33 nM.

Turning to `CC(C)[C@@H](CO)Nc1cc(Nc2cnccn2)nc(N[C@@H](C)c2ccc(F)cc2)n1` [Example 99, (S)-2-{2-[(S)-1-(4-Fluorophenyl)ethylamino]-6-(pyrazin-2-ylamino)pyrimidin-4-ylamino}-3-methylbutan-1-ol hydrochloride], the IC50 against JAK2 tyrosine kinase was found to be 2.4 nM; on JAK3 tyrosine kinase, 200 nM.

Take `C[C@H](Nc1nc(Nc2cnccn2)cc(N2CCN(S(C)(=O)=O)CC2)n1)c1ccc(Cl)cc1` [Example 100, (S)—N^2-[1-(4-Chlorophenyl)ethyl]-6-[4-(methylsulfonyl)piperazin-1-yl]-N^4-(pyrazin-2-yl)pyrimidine-2,4-diamine hydrochloride]: the IC50 against JAK2 tyrosine kinase came out at 0.52 nM; on JAK3 tyrosine kinase it was 47 nM.

Turning to `C[C@H](Nc1nc(Nc2cnccn2)cc(O[C@H]2CCCC[C@@H]2O)n1)c1ccc(F)cc1` [Example 101, (1S,2S)-2-{2-[(S)-1-(4-Fluorophenyl)ethylamino]-6-(pyrazin-2-ylamino)pyrimidin-4-yloxy}cyclohexanol hydrochloride], the values for the IC50 against JAK2 tyrosine kinase and against JAK3 tyrosine kinase were 11 nM and 600 nM, respectively.

For the compound `Cc1cnc(CNc2cc(Nc3cnccn3)nc(N[C@@H](C)c3ccc(F)cc3)n2)cn1` [Example 102, (S)—N^2-[1-(4-Fluorophenyl)ethyl]-N^4-[(5-methylpyrazin-2-yl)methyl]-N^6-(pyrazin-2-yl)pyrimidine-2,4,6-triamine hydrochloride], the IC50 on JAK2 tyrosine kinase stood at 2.6 nM; on JAK3 tyrosine kinase it was 140 nM.

As for `C[C@H](Nc1nc(NCc2ccco2)cc(Nc2cnccn2)n1)c1ccc(F)cc1` [Example 103, (S)—N^2-[1-(4-Fluorophenyl)ethyl]-N^4-(furan-2-ylmethyl)-N^6-(pyrazin-2-yl)pyrimidine-2,4,6-triamine hydrochloride], the IC50 against JAK2 tyrosine kinase amounted to 4.1 nM; against JAK3 tyrosine kinase, 310 nM.

Source of the values: patent US8586591B2, “Aminopyrazine derivative and medicine” (Nippon Shinyaku Co., Ltd., priority 2009, dated 2013).
